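48-hour exposure; five concentrations; linearly interpolated endpoints. TGI: concentration producing complete growth inhibition.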
Key:
Test in all cases: inhibition of tumour cell growth, NCI panel, 48 h
[1] = tested on: IGROV1 ovarian
[2] = tested on: NCI-H522 lung
[3] = tested on: T-47D breast
[4] = tested on: NCI-H23 lung
[5] = tested on: UACC-62 melanoma
[6] = tested on: PC-3 prostate
[7] = tested on: OVCAR-3 ovarian
[8] = tested on: COLO 205 colon
[9] = tested on: SF-268 CNS
[10] = tested on: HT29 colon
[11] = tested on: M14 melanoma
[12] = tested on: SK-MEL-2 melanoma
[13] = tested on: RXF 393 renal
[14] = tested on: ACHN renal
[15] = tested on: RPMI-8226 leukemia
[16] = tested on: MDA-MB-231 breast
[17] = tested on: SK-OV-3 ovarian
[18] = tested on: OVCAR-4 ovarian
[19] = tested on: NCI/ADR-RES ovarian
[20] = tested on: MDA-N
[21] = tested on: UACC-257 melanoma
[22] = tested on: SF-295 CNS
[23] = tested on: HOP-92 NSCLC
[24] = tested on: CCRF-CEM leukemia
[25] = tested on: HOP-62 NSCLC
[26] = tested on: HS 578T breast
[27] = tested on: SN12C renal
[28] = tested on: OVCAR-5 ovarian
[29] = tested on: SR leukemia
[30] = tested on: SNB-19 CNS
[31] = tested on: DU-145 prostate
[32] = tested on: SK-MEL-28 melanoma
[33] = tested on: A498 renal
[34] = tested on: A549 NSCLC
[35] = tested on: MOLT-4 leukemia
[36] = tested on: U251 CNS
[37] = tested on: LOX IMVI melanoma
[38] = tested on: K-562 leukemia
[39] = tested on: HL-60(TB) leukemia
[40] = tested on: MCF7 breast
[41] = tested on: 786-0 renal
[42] = tested on: HCT-15 colon
[43] = tested on: EKVX NSCLC
[44] = tested on: HCT-116 colon
[45] = tested on: SK-MEL-5 melanoma
[46] = tested on: TK-10 renal
[47] = tested on: SNB-75 CNS
[48] = tested on: BT-549 breast
[49] = tested on: SW-620 colon
[50] = tested on: MDA-MB-435
[51] = tested on: NCI-H226 lung
[52] = tested on: OVCAR-8 ovarian
[53] = tested on: UO-31 renal
[54] = tested on: MALME-3M melanoma
[55] = tested on: CAKI-1 renal
[56] = tested on: KM12 colon
[57] = tested on: NCI-H460 lung
[58] = tested on: HCC-2998 colon
[59] = tested on: SF-539 CNS

CN1C2CCC1CC(OC(c1ccccc1)c1ccccc1)C2 (configuration not stated)
TGI [1]: 38.8 µM | TGI [2]: 28.1 µM | TGI [3]: 80.1 µM | TGI [4]: 83.3 µM | TGI [5]: 30.4 µM | TGI [6]: 37.3 µM | TGI [7]: 47 µM | TGI [8]: 23.7 µM | TGI [9]: 41.5 µM | TGI [10]: 23 µM | TGI [11]: 27.9 µM | TGI [12]: 32.1 µM | TGI [13]: 42.3 µM | TGI [14]: 59.2 µM | TGI [15]: 33.4 µM | TGI [16]: 32.7 µM | TGI [17]: 47.1 µM | TGI [18]: > 100 µM | TGI [19]: 34.3 µM | TGI [20]: 28.8 µM | TGI [21]: 26.6 µM | TGI [22]: 23.5 µM | TGI [23]: 29.1 µM | TGI [24]: 29.9 µM | TGI [25]: 43 µM | TGI [26]: 33.5 µM | TGI [27]: > 100 µM | TGI [28]: 41.2 µM | TGI [29]: 42 µM | TGI [30]: 48.3 µM | TGI [31]: > 100 µM | TGI [32]: 27.8 µM | TGI [33]: 28.4 µM | TGI [34]: 39.7 µM | TGI [35]: 73.6 µM | TGI [36]: 28.9 µM | TGI [37]: 29.4 µM | TGI [38]: 34.5 µM | TGI [39]: 36.2 µM | TGI [40]: 26.9 µM | TGI [41]: 27 µM | TGI [42]: 78.8 µM | TGI [43]: 91.2 µM | TGI [44]: 25.1 µM | TGI [45]: 29.1 µM | TGI [46]: 44.5 µM | TGI [47]: 72.8 µM | TGI [48]: 41.2 µM | TGI [49]: 27.6 µM | TGI [50]: 29.8 µM | TGI [51]: 72.6 µM | TGI [52]: 29.9 µM | TGI [53]: 40.1 µM | TGI [54]: 28.1 µM | TGI [55]: > 100 µM | TGI [56]: 37.9 µM

CCOC(=O)/C(C#N)=C/c1ccc2c(-c3c(OCC)ccc4cc(/C=C(\C#N)C(=O)OCC)ccc34)c(OCC)ccc2c1
TGI [1]: > 100 µM | TGI [2]: > 100 µM | TGI [3]: > 100 µM | TGI [4]: > 100 µM | TGI [5]: > 100 µM | TGI [6]: > 100 µM | TGI [57]: > 100 µM | TGI [7]: > 100 µM | TGI [8]: > 100 µM | TGI [9]: > 100 µM | TGI [10]: > 100 µM | TGI [11]: 35.7 µM | TGI [12]: > 100 µM | TGI [13]: > 100 µM | TGI [14]: > 100 µM | TGI [15]: > 100 µM | TGI [16]: 56.1 µM | TGI [17]: > 100 µM | TGI [18]: > 100 µM | TGI [19]: > 100 µM | TGI [58]: > 100 µM | TGI [20]: > 100 µM | TGI [21]: > 100 µM | TGI [22]: > 100 µM | TGI [23]: > 100 µM | TGI [24]: > 100 µM | TGI [25]: > 100 µM | TGI [26]: > 100 µM | TGI [27]: > 100 µM | TGI [28]: > 100 µM | TGI [30]: > 100 µM | TGI [31]: > 100 µM | TGI [32]: > 100 µM | TGI [33]: > 100 µM | TGI [34]: > 100 µM | TGI [35]: > 100 µM | TGI [36]: > 100 µM | TGI [37]: > 100 µM | TGI [38]: > 100 µM | TGI [39]: > 100 µM | TGI [40]: > 100 µM | TGI [41]: > 100 µM | TGI [42]: > 100 µM | TGI [43]: > 100 µM | TGI [44]: > 100 µM | TGI [45]: > 100 µM | TGI [46]: > 100 µM | TGI [47]: > 100 µM | TGI [48]: > 100 µM | TGI [49]: > 100 µM | TGI [50]: > 100 µM | TGI [51]: > 100 µM | TGI [52]: > 100 µM | TGI [53]: > 100 µM | TGI [54]: > 100 µM | TGI [55]: > 100 µM | TGI [56]: > 100 µM

O=C1c2ccccc2-c2c1c1ccccc1c(=O)n2Cc1ccco1
TGI [1]: > 100 µM | TGI [2]: > 100 µM | TGI [3]: > 100 µM | TGI [4]: > 100 µM | TGI [5]: > 100 µM | TGI [6]: > 100 µM | TGI [7]: > 100 µM | TGI [8]: > 100 µM | TGI [9]: > 100 µM | TGI [10]: > 100 µM | TGI [11]: > 100 µM | TGI [12]: > 100 µM | TGI [59]: > 100 µM | TGI [15]: > 100 µM | TGI [16]: > 100 µM | TGI [17]: > 100 µM | TGI [19]: > 100 µM | TGI [20]: > 100 µM | TGI [21]: > 100 µM | TGI [22]: > 100 µM | TGI [23]: > 100 µM | TGI [24]: > 100 µM | TGI [25]: > 100 µM | TGI [26]: > 100 µM | TGI [27]: > 100 µM | TGI [28]: > 100 µM | TGI [29]: > 100 µM | TGI [31]: > 100 µM | TGI [32]: > 100 µM | TGI [33]: > 100 µM | TGI [34]: > 100 µM | TGI [35]: > 100 µM | TGI [36]: > 100 µM | TGI [37]: > 100 µM | TGI [38]: > 100 µM | TGI [39]: > 100 µM | TGI [40]: > 100 µM | TGI [41]: > 100 µM | TGI [42]: > 100 µM | TGI [43]: > 100 µM | TGI [44]: > 100 µM | TGI [45]: > 100 µM | TGI [46]: > 100 µM | TGI [47]: > 100 µM | TGI [48]: > 100 µM | TGI [49]: > 100 µM | TGI [50]: > 100 µM | TGI [51]: > 100 µM | TGI [52]: > 100 µM | TGI [53]: > 100 µM | TGI [54]: > 100 µM | TGI [55]: > 100 µM | TGI [56]: > 100 µM

S=CN1CCCCC1
TGI [1]: > 100 µM | TGI [2]: > 100 µM | TGI [3]: > 100 µM | TGI [4]: > 100 µM | TGI [5]: > 100 µM | TGI [6]: > 100 µM | TGI [57]: > 100 µM | TGI [7]: > 100 µM | TGI [8]: > 100 µM | TGI [9]: > 100 µM | TGI [10]: > 100 µM | TGI [11]: > 100 µM | TGI [12]: > 100 µM | TGI [59]: > 100 µM | TGI [14]: > 100 µM | TGI [15]: > 100 µM | TGI [16]: > 100 µM | TGI [17]: > 100 µM | TGI [19]: > 100 µM | TGI [58]: > 100 µM | TGI [20]: > 100 µM | TGI [21]: > 100 µM | TGI [22]: > 100 µM | TGI [24]: > 100 µM | TGI [25]: > 100 µM | TGI [26]: > 100 µM | TGI [27]: > 100 µM | TGI [28]: > 100 µM | TGI [29]: > 100 µM | TGI [30]: > 100 µM | TGI [31]: > 100 µM | TGI [32]: > 100 µM | TGI [33]: > 100 µM | TGI [34]: > 100 µM | TGI [35]: > 100 µM | TGI [36]: > 100 µM | TGI [37]: > 100 µM | TGI [38]: > 100 µM | TGI [39]: > 100 µM | TGI [40]: > 100 µM | TGI [41]: > 100 µM | TGI [42]: > 100 µM | TGI [43]: > 100 µM | TGI [44]: > 100 µM | TGI [45]: > 100 µM | TGI [46]: > 100 µM | TGI [47]: > 100 µM | TGI [48]: > 100 µM | TGI [49]: > 100 µM | TGI [50]: > 100 µM | TGI [51]: > 100 µM | TGI [52]: > 100 µM | TGI [53]: > 100 µM | TGI [54]: > 100 µM | TGI [55]: > 100 µM | TGI [56]: > 100 µM

Reference: PubChem BioAssay (NCI)
